Drawing on article PMC9863657, “A Tailored Strategy to Crosslink the Aspartate Transcarbamoylase Domain of the Multienzymatic Protein CAD” (Molecules, 2023), this text covers Tm, stoichiometry N and Km for four compounds.

One may read the stoichiometry N as the number of molecules, sites or subunits per partner or assembly.

Test [1] deals with T1, ctATC (ATC domain of C. thermophilum CAD-like protein) (Thermochaetoides thermophila, UniProt G0S583, N2045C/R2238C).
T1 construct: gene CTHT_0032600; isolated ATC domain aa 1939-2253; N-terminal His6-MBP cut with PreScission; E. coli BL21(DE3) pLysS; homotrimer, 119 kDa by SEC (ctATC2Cys, similar to WT)
The test is described as follows: differential scanning fluorimetry. As to conditions: 1 mM PALA; 5 µM protein; pH 7.0; disulfide-crosslinked trimer; Tm without PALA 73.5 °C; transition state analog. The class given is binding.

For test [2], the target named is T2, ctATC (ATC domain of C. thermophilum CAD-like protein) (Thermochaetoides thermophila, UniProt G0S583).
T2 construct: gene CTHT_0032600; isolated ATC domain aa 1939-2253; N-terminal His6-MBP cut with PreScission; E. coli BL21(DE3) pLysS; homotrimer, 119 kDa by SEC (ctATC2Cys, similar to WT)
As to the kind of experiment: differential scanning fluorimetry. The note with it: 1 mM PALA; 5 µM protein; pH 7.0; Tm without PALA 53.9 °C; transition state analog. It counts as binding. For orientation: In DSF a fluorescence change marks the thermal transition of the protein.

For test [3], the target named is ATC domain of C. thermophilum CAD-like protein with mutations N2045C and R2238C (ctATC2Cys) (Chaetomium thermophilum). As to the kind of experiment: crystal structure; crystals of ctATC2Cys free and with 2 mM carbamoyl phosphate (CP), space group P4(3)32, one subunit per asymmetric unit.
Test [4] shares this target. The test is described as follows: SEC; Superdex 200 10/300 GL in 20 mM Tris-HCl pH 8.0, 150 mM NaCl, room temperature; molecular weight estimated from calibration with standards.
In test [5] the target is full-length C. thermophilum CAD-like protein (Chaetomium thermophilum). The test is described as follows: not stated; unpublished results: recombinant full-length protein isolated as hexameric particles.
Test [6] has as its target T1, ctATC (ATC domain of C. thermophilum CAD-like protein). As to the kind of experiment: colorimetric carbamoyl aspartate assay. It counts as biochemical. As to conditions: 5 mM CP; 50 mM Tris-acetate pH 8.3; 25 °C; 0.1 µM enzyme; substrate inhibition model; range printed jointly for WT and double mutant; disulfide-crosslinked trimer; read-out: S0.5^Asp.
Test [7] addresses T2, ctATC (ATC domain of C. thermophilum CAD-like protein). As to the kind of experiment: colorimetric carbamoyl aspartate assay. The note with it: 5 mM CP; 50 mM Tris-acetate pH 8.3; 25 °C; 0.1 µM enzyme; substrate inhibition model; range printed jointly for WT and double mutant; read-out: S0.5^Asp. The class given is biochemical.

T1 sequence (G0S583 entry or part of it N2045C/R2238C): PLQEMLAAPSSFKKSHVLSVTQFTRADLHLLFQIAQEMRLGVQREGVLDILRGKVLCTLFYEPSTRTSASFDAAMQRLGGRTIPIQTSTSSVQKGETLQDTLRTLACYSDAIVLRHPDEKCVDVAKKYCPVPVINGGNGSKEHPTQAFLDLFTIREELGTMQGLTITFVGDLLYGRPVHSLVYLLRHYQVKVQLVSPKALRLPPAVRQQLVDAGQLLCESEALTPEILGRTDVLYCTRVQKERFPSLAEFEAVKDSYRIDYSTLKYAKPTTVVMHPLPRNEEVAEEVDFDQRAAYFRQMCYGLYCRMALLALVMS
T2 sequence (G0S583 entry or part of it): as the sequence (G0S583 entry or part of it N2045C/R2238C) above, with C107N, C300R counted along it

In the case of `O=C(O)C[C@H](NC(=O)CP(=O)(O)O)C(=O)O` [PALA], the Tm in test [1] and in test [2] was ~ 90 °C in each case. For the compound “ATC domain of C. thermophilum CAD-like protein with mutations N2045C and R2238C (ctATC2Cys) (domain or fragment)”, the stoichiometry N in test [3] and in test [4] was 3 in each case. Take “full-length C. thermophilum CAD-like protein (natural protein)”: in test [5], the stoichiometry N was 6. Turning to `N[C@@H](CC(=O)O)C(=O)O` [Asp, aspartate], the Km in test [6] and in test [7] was 1500 to 2000 µM each time.
